{"source": "patent US20230063321A1", "about": "“Methods for Treating Inflammatory Bowel Diseases with alpha4beta7 Integrin Antagonists” (Protagonist Therapeutics, Inc., priority 2020, published 2023)", "key": {"[1]": {"biological_target": "T1, α4β7 integrin on memory CD4+ T cells (Homo sapiens, UniProt P13612+P26010)", "T1 construct": "the amount of α4β7 expression on the cell surface of circulating lymphocytes; endogenous in cells; host or cells: heparinized whole blood of healthy volunteers", "T1 sequence (P13612 34-1032)": "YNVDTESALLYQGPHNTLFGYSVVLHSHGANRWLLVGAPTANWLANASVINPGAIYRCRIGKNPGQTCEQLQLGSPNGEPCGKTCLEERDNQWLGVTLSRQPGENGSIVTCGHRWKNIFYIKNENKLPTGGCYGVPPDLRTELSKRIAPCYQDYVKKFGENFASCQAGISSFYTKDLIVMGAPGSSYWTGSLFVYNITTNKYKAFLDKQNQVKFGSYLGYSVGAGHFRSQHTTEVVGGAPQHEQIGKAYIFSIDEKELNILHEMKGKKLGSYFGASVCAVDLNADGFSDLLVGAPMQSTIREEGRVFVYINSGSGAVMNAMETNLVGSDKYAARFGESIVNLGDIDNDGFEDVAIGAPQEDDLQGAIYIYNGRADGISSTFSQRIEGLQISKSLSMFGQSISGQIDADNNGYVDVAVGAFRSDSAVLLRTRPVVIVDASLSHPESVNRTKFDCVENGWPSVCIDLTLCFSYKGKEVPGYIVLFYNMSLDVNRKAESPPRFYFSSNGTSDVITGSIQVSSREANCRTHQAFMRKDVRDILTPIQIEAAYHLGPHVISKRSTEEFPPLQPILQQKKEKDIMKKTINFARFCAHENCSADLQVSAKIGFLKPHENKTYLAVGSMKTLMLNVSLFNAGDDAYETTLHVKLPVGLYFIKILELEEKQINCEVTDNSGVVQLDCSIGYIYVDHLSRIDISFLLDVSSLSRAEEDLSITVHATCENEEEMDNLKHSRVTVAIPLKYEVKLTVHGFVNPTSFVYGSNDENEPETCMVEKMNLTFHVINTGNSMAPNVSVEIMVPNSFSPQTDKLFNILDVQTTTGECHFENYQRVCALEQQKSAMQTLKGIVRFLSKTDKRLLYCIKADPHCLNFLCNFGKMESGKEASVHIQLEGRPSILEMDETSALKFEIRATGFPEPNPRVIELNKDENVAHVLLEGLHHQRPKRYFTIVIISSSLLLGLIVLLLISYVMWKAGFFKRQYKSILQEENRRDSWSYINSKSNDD", "T1 sequence (P26010 20-798)": "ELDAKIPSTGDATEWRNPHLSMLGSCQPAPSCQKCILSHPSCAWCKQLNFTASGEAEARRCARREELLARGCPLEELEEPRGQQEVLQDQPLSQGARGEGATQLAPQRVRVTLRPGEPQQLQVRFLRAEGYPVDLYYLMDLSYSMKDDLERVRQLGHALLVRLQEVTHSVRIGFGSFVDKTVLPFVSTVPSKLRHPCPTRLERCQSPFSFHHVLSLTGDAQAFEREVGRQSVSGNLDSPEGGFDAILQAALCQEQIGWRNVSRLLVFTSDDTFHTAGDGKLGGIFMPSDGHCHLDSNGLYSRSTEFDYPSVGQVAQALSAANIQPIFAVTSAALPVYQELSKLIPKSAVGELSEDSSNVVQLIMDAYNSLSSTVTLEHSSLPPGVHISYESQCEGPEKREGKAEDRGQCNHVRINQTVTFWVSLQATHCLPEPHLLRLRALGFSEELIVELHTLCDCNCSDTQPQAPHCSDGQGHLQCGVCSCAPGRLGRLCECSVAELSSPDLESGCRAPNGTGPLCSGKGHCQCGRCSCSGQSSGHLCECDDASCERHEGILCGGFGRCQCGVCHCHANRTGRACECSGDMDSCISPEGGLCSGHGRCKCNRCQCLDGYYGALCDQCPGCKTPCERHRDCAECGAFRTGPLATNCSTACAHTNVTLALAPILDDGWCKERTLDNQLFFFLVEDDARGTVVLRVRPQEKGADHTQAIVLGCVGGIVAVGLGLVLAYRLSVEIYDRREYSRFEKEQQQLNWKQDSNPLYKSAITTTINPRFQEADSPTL", "experiment": "Study 1 blood α4β7 receptor occupancy and receptor expression", "assay_type": "in vivo", "details": "for REmax (%) / ROmax (%) / Tmax for RE / Tmax for RO / Average RE (%) / Average RO (%): Mean ± SD", "protocol": "After staining is completed, the samples are treated with a red blood cell lysis and fixation buffer, washed and acquired on a flow cytometer. To quantify receptor occupancy on α4β7 expressing memory CD4 T cells, the […] fluorescence intensity (MFI) of Alexa647-labelled peptide within the vedolizumab+ memory CD4+ T cells was used. Receptor occupancy was calculated according to the following formula: [Percent RO]=(1−([Unblocked]−[Blocked])/([Baseline Unblocked]−[Baseline Blocked]))×100.\nExpression of α4β7 is defined by MFI of vedolizumab within the memory CD4+ T cells from the unblocked samples. Receptor expression (RE) was calculated as percent change of MFI from baseline for the vedolizumab stain."}, "[2]": {"experiment": "Oral bioavailability in mice", "details": "mouse, in vivo"}, "[3]": {"details": "1000 mg Fasted once daily, Day 1"}, "[4]": {"details": "1000 mg Fasted once daily, Day 14"}, "[5]": {"details": "single dose 1400 mg, listed as COMPOUND A"}}, "note": "Where “and” joins values, the source holds several entries; their conditions need not be identical. Identical values can stand only once. Numbered stars: 1 amine (or outer) side, 2 acyl side, 3 side chain; on linkers, the order of the positions; unused ones are H or OH. Bridge positions count the residues as written; N and C are the ends. Square brackets hold non-standard residues; d marks the D form. Peptide text beside a SMILES is read from it. I, II: the chains in the order shown. ξ: configuration not given here. Phe(4-tBu) = CC(C)(C)c1ccc(C[C@H](N)C(=O)O)cc1; Diglycolyl = O=C(COCC(=O)[*:2])[*:1]; NMeR = CN[C@@H](CCCNC(=N)N)C(=O)O; β3hE = N[C@@H](CCC(=O)O)CC(=O)O; Thr(3ξ) = CC(O)[C@H](N)C(=O)O; X1 = O=C(c1ccccc1C[*:2])[*:1]; Pen = CC(C)(S)[C@H](N)C(=O)O", "data": [{"smiles": "CC(C)C[C@@H]1NC(=O)[C@H](C(C)O)NC(=O)[C@H](CC(=O)O)NC(=O)[C@H](CO)NC(=O)[C@H](CCCNC(=N)N)N(C)C(=O)c2ccccc2CSC(C)(C)[C@@H](C(=O)N[C@@H](Cc2ccc(C(C)(C)C)cc2)C(=O)N[C@@H](CCC(=O)O)CC(=O)N[C@H](CCCCNC(=O)COCC(=O)NCCCC[C@@H](NC(=O)C[C@H](CCC(=O)O)NC(=O)[C@H](Cc2ccc(C(C)(C)C)cc2)NC(=O)[C@H]2NC(=O)[C@H](CC(C)C)NC(=O)[C@H](C(C)O)NC(=O)[C@H](CC(=O)O)NC(=O)[C@H](CO)NC(=O)[C@H](CCCNC(=N)N)N(C)C(=O)c3ccccc3CSC2(C)C)C(=O)O)C(=O)O)NC1=O", "note": "(stereo partly drawn) [Compound A, ((2-Benzyl)-(N-Me-R)-Ser-Asp-Thr-Leu-Pen-(Phe(4-tBlu))-(β-homo-Glu)-(D-Lys)-OH)2 (SEQ ID NO: 5) and linker-DIG diglycolic acid] (I: [NMeR]SD[Thr(3ξ)]L[Pen][Phe(4-tBu)][β3hE][dK]-OH / II: [NMeR]SD[Thr(3ξ)]L[Pen][Phe(4-tBu)][β3hE][dK]-OH; linker I:9-II:9 via Diglycolyl; linker I:N-I:6, II:N-II:6 via X1)", "values": [{"measurement": "REmax (%)", "setting": "[1]; 900 mg QD, Day 1", "result": "−47.3 ± 5.0", "unit": "%"}, {"measurement": "ROmax (%)", "setting": "[1]; 900 mg QD, Day 1", "result": "94.5% and 94.5 ± 2.61%"}, {"measurement": "Tmax for RE", "setting": "[1]; 900 mg QD, Day 1", "result": "13 ± 1.4", "unit": "h"}, {"measurement": "Tmax for RO", "setting": "[1]; 900 mg QD, Day 1", "result": "5.4 ± 3.9", "unit": "h"}, {"measurement": "Average RE (%)", "setting": "[1]; 900 mg QD, Day 5", "result": "−44.6 ± 6.3", "unit": "%"}, {"measurement": "REmax (%)", "setting": "[1]; 900 mg QD, Day 5", "result": "−50.1 ± 5.3", "unit": "%"}, {"measurement": "ROmax (%)", "setting": "[1]; 900 mg QD, Day 5", "result": "94.9% and 94.9 ± 1.97%"}, {"measurement": "Tmax for RE", "setting": "[1]; 900 mg QD, Day 5", "result": "11 ± 3.9", "unit": "h"}, {"measurement": "Tmax for RO", "setting": "[1]; 900 mg QD, Day 5", "result": "3.3 ± 6.2", "unit": "h"}, {"measurement": "Average RO (%)", "setting": "[1]; 900 mg QD, Day 5, 24-hour AUEC", "result": "79.2% and 79.2 ± 8.7%"}, {"measurement": "Average RE (%)", "setting": "[1]; [3]", "result": "−33.9 ± 3.4", "unit": "%"}, {"measurement": "Average RO (%)", "setting": "[1]; [3]", "result": "77.1 ± 3.7", "unit": "%"}, {"measurement": "REmax (%)", "setting": "[1]; [3]", "result": "−43.1 ± 4.0", "unit": "%"}, {"measurement": "ROmax (%)", "setting": "[1]; [3]", "result": "91.3 ± 2.93", "unit": "%"}, {"measurement": "Tmax for RE", "setting": "[1]; [3]", "result": "12.0 ± 0", "unit": "h"}, {"measurement": "Tmax for RO", "setting": "[1]; [3]", "result": "7.0 ± 4.1", "unit": "h"}, {"measurement": "ROmax (%)", "setting": "[1]; 1000 mg Fasted once daily, Day 1, listed as COMPOUND A", "result": 91.3, "unit": "%"}, {"measurement": "Average RE (%)", "setting": "[1]; [4]", "result": "−51.3 ± 3.1", "unit": "%"}, {"measurement": "Average RO (%)", "setting": "[1]; [4]", "result": "81.5 ± 15.5", "unit": "%"}, {"measurement": "REmax (%)", "setting": "[1]; [4]", "result": "−57.3 ± 2.9", "unit": "%"}, {"measurement": "ROmax (%)", "setting": "[1]; [4]", "result": "95.6 ± 0.97", "unit": "%"}, {"measurement": "Tmax for RE", "setting": "[1]; [4]", "result": "4.0 ± 0", "unit": "h"}, {"measurement": "Tmax for RO", "setting": "[1]; [4]", "result": "4.0 ± 0", "unit": "h"}, {"measurement": "ROmax (%)", "setting": "[1]; 1000 mg Fasted once daily, Day 14, listed as COMPOUND A", "result": 95.6, "unit": "%"}, {"measurement": "mean peak receptor occupancy", "setting": "[1]; doses of 900 mg", "result": "greater than 90%"}, {"measurement": "trough receptor occupancy", "setting": "[1]; once-daily 100 mg", "result": "approximately 25.4%"}, {"measurement": "trough receptor occupancy", "setting": "[1]; once-daily 1000 mg", "result": "~78.6", "unit": "%"}, {"measurement": "receptor occupancy at trough", "setting": "[1]; once-daily or twice-daily dosing", "result": "greater than 80%"}, {"measurement": "Average RE (%)", "setting": "[1]; single dose 100 mg", "result": "−21.6 ± 7.1", "unit": "%"}, {"measurement": "Average RO (%)", "setting": "[1]; single dose 100 mg", "result": "38.9 ± 12.5", "unit": "%"}, {"measurement": "ROmax (%)", "setting": "[1]; single dose 100 mg", "result": "61.8 ± 10.8", "unit": "%"}, {"measurement": "Tmax for RE", "setting": "[1]; single dose 100 mg", "result": "11 ± 6.0", "unit": "h"}, {"measurement": "Tmax for RO", "setting": "[1]; single dose 100 mg", "result": "3.8 ± 2.2", "unit": "h"}, {"measurement": "REmax (%)", "setting": "[1]; single dose 100 mg, change from baseline", "result": "−28.2 ± 7.97", "unit": "%"}, {"measurement": "REmax (%)", "setting": "[1]; single dose 100 mg, change from baseline, listed as COMPOUND A", "result": "−28.2", "unit": "%"}, {"measurement": "ROmax (%)", "setting": "[1]; single dose 100 mg, listed as COMPOUND A", "result": 61.8, "unit": "%"}, {"measurement": "Average RE (%)", "setting": "[1]; single dose 300 mg", "result": "−32.4 ± 3.0", "unit": "%"}, {"measurement": "Average RO (%)", "setting": "[1]; single dose 300 mg", "result": "64.3 ± 6.6", "unit": "%"}, {"measurement": "REmax (%)", "setting": "[1]; single dose 300 mg", "result": "−43.6 ± 3.69", "unit": "%"}, {"measurement": "ROmax (%)", "setting": "[1]; single dose 300 mg", "result": "83.4 ± 7.92", "unit": "%"}, {"measurement": "Tmax for RE", "setting": "[1]; single dose 300 mg", "result": "12 ± 0", "unit": "h"}, {"measurement": "Tmax for RO", "setting": "[1]; single dose 300 mg", "result": "4.6 ± 2.3", "unit": "h"}, {"measurement": "ROmax (%)", "setting": "[1]; single dose 300 mg, listed as COMPOUND A", "result": 83.4, "unit": "%"}, {"measurement": "Average RE (%)", "setting": "[1]; single dose 1000 mg", "result": "−36.3 ± 2.9", "unit": "%"}, {"measurement": "Average RO (%)", "setting": "[1]; single dose 1000 mg", "result": "81.0 ± 3.5", "unit": "%"}, {"measurement": "REmax (%)", "setting": "[1]; single dose 1000 mg", "result": "−45.4 ± 3.70", "unit": "%"}, {"measurement": "ROmax (%)", "setting": "[1]; single dose 1000 mg", "result": "93.6 ± 2.04", "unit": "%"}, {"measurement": "Tmax for RE", "setting": "[1]; single dose 1000 mg", "result": "12 ± 0", "unit": "h"}, {"measurement": "Tmax for RO", "setting": "[1]; single dose 1000 mg", "result": "4.1 ± 1.9", "unit": "h"}, {"measurement": "Average RE (%)", "setting": "[1]; single dose 1400 mg", "result": "−40.3 ± 6.9", "unit": "%"}, {"measurement": "Average RO (%)", "setting": "[1]; single dose 1400 mg", "result": "86.0 ± 6.8", "unit": "%"}, {"measurement": "REmax (%)", "setting": "[1]; single dose 1400 mg", "result": "−49.0 ± 8.20", "unit": "%"}, {"measurement": "ROmax (%)", "setting": "[1]; single dose 1400 mg", "result": "94.8 ± 3.55", "unit": "%"}, {"measurement": "Tmax for RE", "setting": "[1]; single dose 1400 mg", "result": "12 ± 0", "unit": "h"}, {"measurement": "Tmax for RO", "setting": "[1]; single dose 1400 mg", "result": "4.6 ± 3.2", "unit": "h"}, {"measurement": "REmax (%)", "setting": "[1]; [5]", "result": "−49.0", "unit": "%"}, {"measurement": "ROmax (%)", "setting": "[1]; [5]", "result": 94.8, "unit": "%"}, {"measurement": "bioavailability", "setting": "[2]", "result": "< 1", "unit": "%"}]}]}
